According to PMC1716192, “A Plant-Derived Morphinan as a Novel Lead Compound Active against Malaria Liver Stages” (PLoS Medicine, 2006):
Read-outs that look alike come from different tables or passages of the source.

Assays:
Type in all cases: cell-based
[1] = system: P. yoelii (265 BY strain) hepatic stages; assay: In vitro assay for P. yoelii liver stage inhibition in primary mouse hepatocytes
Protocol: (§1) P. yoelii (265 BY strain) and P. falciparum (NF 54 strain) sporozoites were obtained by dissection of infected Anopheles stephensi salivary glands. Primary mouse hepatocytes were isolated as previously described and seeded in eight-well Lab-Tek plastic chamber slides (VWR, Fontenay-sous-Bois, France) previously coated with rat-tail collagen I (BD Biosciences, Le Pont de Claix, France) at a density of 10^5 cells per well. Mouse hepatocytes were cultured at 37 °C in 5% CO2 in William's E medium supplemented with 10% fetal calf serum, 1% L-glutamine, 1% sodium pyruvate, 1% insulin-transferrin-selenium, 1% nonessential amino acids, and 1% penicillin-streptomycin (all from Invitrogen, Cergy-Pontoise, France), for 24 h before inoculation of P. yoelii sporozoites (10^5 per well). Human liver fragments were collected following informed consent provided from patients undergoing a partial hepatectomy. The collection and use of these tissues were undertaken in accordance with French Government ethical regulations. Primary human hepatocytes were isolated from the healthy parts of these liver biopsies as previously described. Human hepatocytes were seeded in LabTek plastic chamber slides coated with collagen, at a density of 1.8 × 10^5 cells per well and cultured at 37 °C in 5% CO2 in the same medium as above, supplemented with 10^−7 M dexamethasone (Sigma) and 2% DMSO after complete cell adherence (12–24 h), for at least 48 h before inoculation of P. falciparum sporozoites (10^5 per well). For a standard assay, the plant extract, the purified compound, or primaquine was solubilized in DMSO, further diluted in culture medium (equal DMSO concentrations of <0.3% per well), and then added to hepatocyte cultures at the time of sporozoite inoculation. Three hours later, after sporozoite penetration into hepatocytes, cultures were washed and further incubated in the presence of the drug. Culture medium containing the appropriate drug concentration was changed daily until 48 h for P. yoelii, or until 5 d for P. falciparum. Parasites were quantified on the last day of incubation. For the in vitro timing experiments, tazopsine treatment of P. yoelii and P. falciparum cultures was undertaken for different periods during the cultivation: 0 h to 3 h, 3 h to 24 h, or 24 h to 48 h after P. yoelii sporozoite inoculation (quantification at 48 h), or 0 h to 2 d, or 3 d to 5 d after P. falciparum sporozoite inoculation (quantification at 5 d). […] Cells were stained with Evans Blue (0.4%), and parasites and cells nuclei were stained with 1 μg/ml of diamidino-phenylindole (DAPI; Sigma). Parasite numbers were counted under a fluorescence microscope with a 25× light microscope objective.
(§2) IC50 and TC50 were calculated by nonlinear regression using four-parameter logistic curves on the SigmaPlot 10.0 software (http://www.systat.com). Each IC50 or TC50 is expressed as a mean between two independent experiments, followed by the standard error of the mean.

[2] = system: P. falciparum (NF 54 strain) hepatic stages; assay: In vitro assay for P. falciparum liver stage inhibition in primary human hepatocytes; settings: P. falciparum hepatic stages in primary human hepatocytes; for IC50: quantified at 5 d, read-out: IC50
Protocol: as §1, with “objective. IC50 values, the drug concentration at which a 50% reduction in the number of parasites was observed, as compared to the number in the DMSO control cultures, were derived from two independent experiments in which each concentration was tested in triplicate wells.” for “objective.”
as §2

[3] = system: primary mouse hepatocytes; assay: In vitro assay for cell viability (neutral red), mouse hepatocytes; settings: 48 h drug exposure
Protocol: (§3) Primary hepatocytes of mice or humans were prepared as above and seeded in 96-well plates coated with collagen, at a density of 5 × 10^4 and 7 × 10^4 cells per well, respectively. Drugs were added to the culture medium, which was changed daily after 24 h or 48 h of incubation for mouse and human hepatocytes, respectively. After 48 h of drug exposure (mouse hepatocytes) or 5 d (human hepatocytes), 50 μl of neutral red (Sigma) at 0.02% in phosphate-buffered saline (PBS) were added per well and incubated for 24 additional hours. Cultures were then washed with PBS and the neutral red extracted with 1% SDS from viable cells and quantified by measuring the OD540 on a microplate autoreader photometer (BioTek Instruments, Winooski, Vermont, United States).
as §2

[4] = system: primary human hepatocytes; assay: In vitro assay for cell viability (neutral red), human hepatocytes; settings: 5 d drug exposure
Protocol: as §3, §2

[5] = Plasmodium yoelii, Hepatocyte, 48 h

| SMILES | IC50 ([1]; P. yoelii hepatic stages in primary mouse hepatocytes, quantified at 48 h, read-out: IC50) | IC50 ([1]; Plasmodium yoelii, Hepatocyte, 48 h, P. yoelii hepatic stages in primary mouse hepatocytes, quantified at 48 h, read-out: IC50) | IC90 ([1]; Plasmodium yoelii, Hepatocyte, P. yoelii hepatic stages in primary mouse hepatocytes, 48 h, read-out: IC90) | IC50 [2] | IC50 ([2]; Plasmodium falciparum, Hepatocyte, 120 h) | IC90 ([2]; Plasmodium falciparum, Hepatocyte, 120 h, 5 d, read-out: IC90) | TC50 [3] | TC50 [4] | IC50 [1, 5] |
| --- | --- | --- | --- | --- | --- | --- | --- | --- | --- |
| COc1cc(NC(C)CCCN)c2ncccc2c1 (stereo not shown) [Primaquine, reference compound] | 640 ± 100 nM | ~1000 nM | > 30000 nM | 800 ± 900 nM | ~1000 nM | 4100 ± 500 nM | 70500 ± 4300 nM | 65200 ± 11900 nM | – |
| COC1=CC=C2[C@H]3Cc4ccc(OC)c5c4[C@@]2(CCN3C)[C@H]1O5 [thebaine, reference compound] | – | – | – | – | – | – | – | – | > 100000 nM |
| COc1ccc2c3c1O[C@H]1[C@@H](O)C=C[C@H]4[C@@H](C2)N(C)CC[C@@]341 [codeine, reference compound] | – | – | – | – | – | – | – | – | > 100000 nM |
